From PMC11079024, “Identification of a family of species-selective complex I inhibitors as potential anthelmintics” (Nature Communications, 2024)
Like-named read-outs stand apart in the source and are kept apart here.

Legend:
C. briggsae complex I = C. briggsae complex I (Caenorhabditis briggsae, UniProt A8X476+A8XFG2+Q8HEC4); experiment: In vitro complex I activity assay, C. briggsae mitochondria; format: biochemical
Description: (§1) Mitochondria were isolated from the following free-living nematode strains: C. elegans—N2, CB3474, ECA882, ECA917, ECA1075, ECA1080; C. briggsae—AF16; P. pacificus—PS312; and P. hermaphrodita—B178. With the exception of the P. hermaphrodita strain B178, adult worms of each strain were grown in bulk through liquid culture to obtain mitochondria in sufficient quantities. Due to poor growth in liquid media, mixed stage populations of P. hermaphrodita were washed off and collected from NGM plates seeded with OP50. The isolation of mitochondria from all free-living nematode strains followed the protocol previously outlined in Burns et al.[24]. In brief, a 1 L saturated culture of E. coli HB101 was concentrated 20-fold in 50 mL complete S-medium. ~500,000 L1 worms synchronized from an embryo preparation performed the day prior were added to the S-media/HB101 suspension and grown to adulthood over the course of 3.5 days at 20 °C with shaking at 165 rpm. Following growth, worms were collected in 10 ×15 mL conical tubes and washed 7 times in M9 buffer. Worm suspensions were then combined into a single 15 mL conical tube and diluted to a final volume of 15 mL with M9 buffer. 1 mL aliquots of worm suspension were then distributed to 15 × 1.5 mL screw-cap microcentrifuge tubes and were pelleted at 500 g for 1 min. Excess M9 was aspirated without disturbing the worm pellet. 600 μL ice-cold isolate buffer A (250 mM sucrose, 10 mM Tris (pH 7.5), 1 mM EDTA, 1 mM PMSF (freshly prepared)) and 300 μL cold glass beads were then added to each tube. Tubes were incubated on ice for 10 min, and the worms were then lysed by bead beating (6 x 30 s, with 1 min cooling intervals). Tubes containing worm lysate were centrifuged at 1,000 g for 10 min at 4 °C and the supernatant was transferred to 15 new microcentrifuge tubes on ice. The tubes were centrifuged a second time at 1,000 g for 10 min at 4 °C and the supernatant was once again transferred to 15 new microcentrifuge tubes on ice. These tubes were then centrifuged at 16,000 g for 10 min at 4 °C. The resulting mitochondrial pellet was washed twice by re-suspension in 300 μL of ice-cold isolate buffer B (250 mM sucrose, 10 mM Tris (pH 7.5), 1 mM EDTA). Following the final wash, isolation buffer was aspirated from each tube and the pellets were flash-frozen in ethanol/dry ice and stored at −80 °C until needed.
(§2) The enzymatic activities of individual ETC complexes (I-IV) were assessed spectrophotometrically in isolated mitochondria using a Varioskan LUX Multimode plate reader (ThermoFisher Scientific). Mitochondrial pellets previously isolated were thawed on ice and resuspended in ice-cold isolation buffer (250 mM sucrose, 10 mM Tris (pH 7.5), 1 mM EDTA). The BCA assay (Walker, 1994) was used to quantify the protein concentration of mitochondria suspensions; solutions were diluted to a concentration of 0.2 mg/mL for use in all assays. For the complex I assay, mitochondria pellets were freeze-thawed on ice three times to increase enzyme accessibility. […] 20 μL mitochondria suspension was then added/mixed with a pipette to initiate the reaction. Immediately following the addition of mitochondria, absorbance was measured (complex I and II: 600 nm; complex III and IV: 550 nm) in 30 s intervals over 15 min. Enzymatic activity was determined in each reaction by plotting absorbance versus time and calculating the slope of the curve during the initial linear phase of the reaction. […] Percent activity of each complex was calculated by dividing the enzyme-specific activity of each well by the enzyme-specific activity of the corresponding solvent controls.
Chemical solutions were prepared in complex I assay buffer composed of 25 mM KPi buffer (pH 7.5), 3 mg/mL bovine serum albumin (BSA), 80 μM NADH, 60 μM decylubiquinone, 160 μM DCIP, 2 μM antimycin A and 2 mM KCN.
For preliminary screens of hit compounds, compounds were screened at 100 μM; data are the average of at least three biological replicates.

P. pacificus complex I = P. pacificus complex I (Pristionchus pacificus, UniProt A0A454XZ18+A0A8R1Z3U8+A4UAP3); experiment: In vitro complex I activity assay, P. pacificus mitochondria; format: biochemical
Description: as §1, §2
Chemical solutions were prepared in complex I assay buffer composed of 25 mM KPi buffer (pH 7.5), 3 mg/mL bovine serum albumin (BSA), 80 μM NADH, 60 μM decylubiquinone, 160 μM DCIP, 2 μM antimycin A and 2 mM KCN. […]

[1] = C. briggsae mitochondria, Mean, read-out: in vitro complex I activity relative to solvent control
[2] = C. briggsae mitochondria, single replicate, read-out: in vitro complex I activity relative to solvent control
[3] = P. pacificus mitochondria, Mean, read-out: in vitro complex I activity relative to solvent control
[4] = P. pacificus mitochondria, single replicate, read-out: in vitro complex I activity relative to solvent control

Chain of C. briggsae complex I (A8X476 31-482): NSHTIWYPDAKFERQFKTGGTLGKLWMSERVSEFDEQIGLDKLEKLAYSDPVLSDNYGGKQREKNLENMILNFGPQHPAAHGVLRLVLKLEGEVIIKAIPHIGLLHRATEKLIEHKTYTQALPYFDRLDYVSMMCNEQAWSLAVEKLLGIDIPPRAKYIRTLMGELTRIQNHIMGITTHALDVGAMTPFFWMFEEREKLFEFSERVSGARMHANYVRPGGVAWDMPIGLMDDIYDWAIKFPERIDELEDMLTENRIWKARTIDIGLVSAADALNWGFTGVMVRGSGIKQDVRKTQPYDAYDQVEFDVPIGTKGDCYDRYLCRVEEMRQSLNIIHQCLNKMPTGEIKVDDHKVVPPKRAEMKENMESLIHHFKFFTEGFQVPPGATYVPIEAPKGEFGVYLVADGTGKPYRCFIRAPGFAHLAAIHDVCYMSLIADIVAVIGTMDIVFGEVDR
Chain of C. briggsae complex I (A8XFG2 17-199): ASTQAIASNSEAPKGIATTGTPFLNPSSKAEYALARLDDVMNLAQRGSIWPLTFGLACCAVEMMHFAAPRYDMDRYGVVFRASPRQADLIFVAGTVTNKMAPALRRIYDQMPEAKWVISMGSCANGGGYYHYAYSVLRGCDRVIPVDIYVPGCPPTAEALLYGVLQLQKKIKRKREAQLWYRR
Chain of C. briggsae complex I (Q8HEC4 whole entry): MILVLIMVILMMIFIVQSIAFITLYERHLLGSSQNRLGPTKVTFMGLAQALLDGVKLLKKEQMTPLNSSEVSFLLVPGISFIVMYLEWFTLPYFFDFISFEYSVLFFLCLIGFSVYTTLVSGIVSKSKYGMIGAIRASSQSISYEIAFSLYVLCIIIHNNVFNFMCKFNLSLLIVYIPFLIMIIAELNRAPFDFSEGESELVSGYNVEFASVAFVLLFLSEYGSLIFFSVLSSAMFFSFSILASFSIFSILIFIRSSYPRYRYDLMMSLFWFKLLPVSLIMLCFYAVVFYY

Cc1ccccc1OCCCCn1cnc2ccccc21 [Compound 7732524] was tested, and the remaining activity at 0.0001 µM (C. briggsae complex I; [1]) was 92.8%, the remaining activity at 0.0001 µM (C. briggsae complex I; [2]) was 92.9% and the remaining activity at 0.0005 µM (C. briggsae complex I; [1]) was 91%. The remaining activity at 0.0005 µM (C. briggsae complex I; [2]) was 90.7%, the remaining activity at 0.001 µM (C. briggsae complex I; [1]) was 90.6% and the remaining activity at 0.001 µM (C. briggsae complex I; [2]) was 94.1%. For the same compound, the remaining activity at 0.0025 µM (C. briggsae complex I; [1]) was 91.8%, the remaining activity at 0.0025 µM (C. briggsae complex I; [2]) was 95.4% and the remaining activity at 0.005 µM (C. briggsae complex I; [1]) was 99.8%. The remaining activity at 0.005 µM (C. briggsae complex I; [2]) was 102%, the remaining activity at 0.013 µM (C. briggsae complex I; [1]) was 86.4% and the remaining activity at 0.013 µM (C. briggsae complex I; [2]) was 91.2%. The remaining activity at 0.025 µM (C. briggsae complex I; [1]) was 74.3%, the remaining activity at 0.025 µM (C. briggsae complex I; [2]) was 77.1% and the remaining activity at 0.063 µM (C. briggsae complex I; [1]) was 43.5%. It also gave a remaining activity at 0.063 µM (C. briggsae complex I; [2]) of 44.1%, a remaining activity at 0.125 µM (C. briggsae complex I; C. briggsae mitochondria, 0.125 µM, Mean, read-out: in vitro complex I activity relative to solvent control) of 26.1% and a remaining activity at 0.313 µM (C. briggsae complex I; C. briggsae mitochondria, 0.313 µM, Mean, read-out: in vitro complex I activity relative to solvent control) of 7.94%. The remaining activity at 0.625 µM (C. briggsae complex I; C. briggsae mitochondria, 0.625 µM, Mean, read-out: in vitro complex I activity relative to solvent control) was 0.818%, the remaining activity at 1.5 µM (C. briggsae complex I; C. briggsae mitochondria, 1.5 µM, Mean, read-out: in vitro complex I activity relative to solvent control) was 1.29% and the remaining activity at 3 µM (C. briggsae complex I; C. briggsae mitochondria, 3 µM, Mean, read-out: in vitro complex I activity relative to solvent control) was 1.71%. The remaining activity at 15 µM (C. briggsae complex I; C. briggsae mitochondria, 15 µM, Mean, read-out: in vitro complex I activity relative to solvent control) was 1.4%, the remaining activity at 37.5 µM (C. briggsae complex I; C. briggsae mitochondria, 37.5 µM, Mean, read-out: in vitro complex I activity relative to solvent control) was 1.05% and the remaining activity at 75 µM (C. briggsae complex I; C. briggsae mitochondria, 75 µM, Mean, read-out: in vitro complex I activity relative to solvent control) was 0.358%. It also gave an IC50 (C. briggsae complex I; purified mitochondria) of 60.3 nM, a remaining activity at 0.0001 µM (P. pacificus complex I; [3]) of 87.6% and a remaining activity at 0.0001 µM (P. pacificus complex I; [4]) of 93.9%. For the same compound, the remaining activity at 0.0005 µM (P. pacificus complex I; P. pacificus mitochondria, 0.0005 µM, Mean, read-out: in vitro complex I activity relative to solvent control) was 88.6%, the remaining activity at 0.001 µM (P. pacificus complex I; P. pacificus mitochondria, 0.001 µM, Mean, read-out: in vitro complex I activity relative to solvent control) was 75.8% and the remaining activity at 0.0025 µM (P. pacificus complex I; P. pacificus mitochondria, 0.0025 µM, Mean, read-out: in vitro complex I activity relative to solvent control) was 97.4%. It also gave a remaining activity at 0.005 µM (P. pacificus complex I; P. pacificus mitochondria, 0.005 µM, Mean, read-out: in vitro complex I activity relative to solvent control) of 100%, a remaining activity at 0.013 µM (P. pacificus complex I; P. pacificus mitochondria, 0.013 µM, Mean, read-out: in vitro complex I activity relative to solvent control) of 85.8% and a remaining activity at 0.025 µM (P. pacificus complex I; P. pacificus mitochondria, 0.025 µM, Mean, read-out: in vitro complex I activity relative to solvent control) of 73.7%. The remaining activity at 0.063 µM (P. pacificus complex I; P. pacificus mitochondria, 0.063 µM, Mean, read-out: in vitro complex I activity relative to solvent control) was 46.6%, the remaining activity at 0.125 µM (P. pacificus complex I; P. pacificus mitochondria, 0.125 µM, Mean, read-out: in vitro complex I activity relative to solvent control) was 24.7% and the remaining activity at 0.313 µM (P. pacificus complex I; P. pacificus mitochondria, 0.313 µM, Mean, read-out: in vitro complex I activity relative to solvent control) was 8.23%. It also gave a remaining activity at 0.625 µM (P. pacificus complex I; P. pacificus mitochondria, 0.625 µM, Mean, read-out: in vitro complex I activity relative to solvent control) of 11.5%, a remaining activity at 1.5 µM (P. pacificus complex I; P. pacificus mitochondria, 1.5 µM, Mean, read-out: in vitro complex I activity relative to solvent control) of 9.66% and a remaining activity at 3 µM (P. pacificus complex I; P. pacificus mitochondria, 3 µM, Mean, read-out: in vitro complex I activity relative to solvent control) of 9.9%. For the same compound, the remaining activity at 15 µM (P. pacificus complex I; [3]) was 16.2%, the remaining activity at 15 µM (P. pacificus complex I; [4]) was 15.9% and the remaining activity at 37.5 µM (P. pacificus complex I; P. pacificus mitochondria, 37.5 µM, Mean, read-out: in vitro complex I activity relative to solvent control) was 16.1%. It also gave a remaining activity at 75 µM (P. pacificus complex I; P. pacificus mitochondria, 75 µM, Mean, read-out: in vitro complex I activity relative to solvent control) of 7.58% and an IC50 (P. pacificus complex I; purified mitochondria) of 56.2 nM.
